# Earlier results, collected in patent US6063383A, “Pharmaceutical suppository composites for fever and influenza and method of producing the composites” (priority 1999, dated 2000).
# Entries after “also recorded” stand apart in the source; their conditions may differ. Read-outs that look alike come from different tables or passages of the source.
# What was measured:
# [1] = test system: twisting reaction of small rats caused by acetic acid; conditions: into the stomach
# [2] = test system: blood capillary permeability; conditions: into the stomach
# nephrosis = conditions: intra-abdominal
# [3] = test system: heart separated from frogs, wister rats, or rabbits
# [4] = test system: heart failure; left ventricles
# sleeping time = conditions: sub-threshold pento-barbital sodium
# [5] = test system: post-synaptic GABA receptors
# pain = conditions: oral intake or injection
# [6] = test system: hemorrhagic heart failure
# blood platelets = conditions: ADP, arachidonic acids and collagen
# [7] = test system: TXA; prostate glandis (PGI)
# [8] = test system: essential hypertension and critical hypertension; conditions: in vivo
# blood cholesterol = conditions: in vivo
# [9] = test system: liver injury caused by carbon tetrachloride
# small rats [10] = test system: small rats
# small rats [11] = conditions: rat, in vivo
# granuloma = conditions: for anti-granulomatous action: cotton granulomatous method; for anti-osmosis: granulationimplantation
# small rats [12] = test system: small rats; remark: listed apart in the source
# [13] = test system: smooth muscles of the gall bladder and the dilator in the opening of the bile duct
# [14] = infusing to the stomach of small rats
compound,measurement,setting,value
"COc1cc(CC2(O)C(=O)OCC2Cc2ccc(OC)c(OC)c2)ccc1O (single isomer, unassigned) [trachelogenin]",IC50,colon,1100 nM
same,antagonistic action on calcium,colon,noticeable antagonistic action on calcium
same,effect on contraction,colon; high concentration of potassium,inhibitory effect on the contraction
same,pA2,"colon; rat, colon",6.60
same,ratio to verapamil,colon; versus verapamil,one-sixth
CCCCCC(O)CC (stereo not drawn) [3-octanol],inflammation action,inflammation,have inflammation action
CC1CCC(C(C)C)C(O)C1 (stereo not drawn) [Methol],inhibitory rate on twisting reaction,[1],41.3%
CC(C)=C1CC[C@@H](C)CC1=O [Pulegone],inhibitory rate on abdominal osmosis,[2],39.8%
"O=C1C[C@@H]2OCC=C3CN4CC[C@]56c7ccccc7N1[C@H]5[C@H]2[C@H]3C[C@H]46 [Strychnine, reference compound]",antagonism of pyrexia,"hypothalamus; rat, in vivo",can antagonize pyrexia
COc1cc(C[C@H]2C(=O)OC[C@@H]2Cc2ccc(OC)c(OC)c2)ccc1O [arctigenin],excretion of proteins in urine,nephrosis,can inhibit the increase in the excretion of proteins in urine
same,serum biochemical index,nephrosis,improve the serum biochemical index
C=CC1=C(C)/C(=C/c2[nH]c(Cc3[nH]c(/C=C4\NC(=O)C(C)=C4C=C)c(C)c3CCC(=O)O)c(CCC(=O)O)c2C)NC1=O [bilirubin],cardiac tonic effect,[3],cardiac tonic effect
same,contracting effect on aortic arteries,aortic arteries,weaker contracting effect
C[C@H](CCC(=O)O)[C@H]1CC[C@H]2[C@@H]3[C@H](O)C[C@@H]4C[C@H](O)CC[C@]4(C)[C@H]3C[C@H](O)[C@]12C [calcium cholic acid],blood pressure lowering effect,"hypertension; oral, 100 mg/kg",significant and long-lasting blood pressure lowering effect
same,duration of hypotensive effect,"hypertension; oral, 100 mg/kg",one
C[C@H](CCC(=O)O)[C@H]1CC[C@H]2[C@@H]3[C@H](O)C[C@@H]4C[C@H](O)CC[C@]4(C)[C@H]3C[C@H](O)[C@]12C [cholic acid],cardiac tonic effect,[3],cardiac tonic effect
same,contracting effect on aortic arteries,aortic arteries,contracting effect
"COc1ccc([C@@H]2Sc3ccccc3N(CCN(C)C)C(=O)[C@@H]2OC(C)=O)cc1 [diltiazem, reference compound]",output of left ventricles,[4]; 1 mg/kg,the output of the left ventricles reduces
"CC(C)NCC(O)COc1cccc2ccccc12 (stereo not drawn) [propranolol, reference compound]",output of left ventricles,[4]; 1 mg/kg,the output of the left ventricles reduces
NCCS(=O)(=O)O [taurine],hypnotizing action,sleeping time,increase the hypnotizing action
same,electrical activities,cerebral cortical nerves,can inhibit both the spontaneous and induced electrical activities and produce hyperpolarization
same,inhibitory effect on the spinal cord and brain stem with strychnine,cerebral cortical nerves; strychnine,antagonized by strychnine
same,affinity for post-synaptic GABA receptors,[5],no significant affinity
same,replacement of GABA effects,[5]; central nervous system,cannot replace the inhibitory effect and modulating effect of GABA
same,effect on convulsion,"convulsion; pento-tetra-amine, cepharathin, carbon monoxide, aluminum oxide, 4-amino pyride, penicillin, oxygen, low calcium, sound, L-uric acid",inhibitory effect
same,latency period of convulsion,convulsion; strychnine,can significantly extend the latency period
same,body temperature,hypothalamus; injection into the hypothalamus,can increase the body temperature
same,body temperature,hypothalamus; large dosage,can reduce the body temperature
same,effect on PGE1 and PGE2 mechanism,heat-induced pyrogenesis; E1 (PGE1) and E2 (PGE2),so such effect occurs
same,inhibition of pyrogenesis,"heat-induced pyrogenesis; endotoxin and white blood cells, injection into the cerebral ventricles",can inhibit the heat-induced pyrogenesis of endotoxin and white blood cells
same,pain relief,pain,does not produce noticeable pain relief
same,hypotensive effect,hypertension; essential or deoxy-cortisone acetate-induced hypertension,hypotensive effect
same,output of left ventricles,[4]; after 1 mg/kg propranolol or diltiazem,can improve the output of left ventricles
same,life expectancy,[4]; long-term oral,extends the life expectancy of rabbits
same,prevention of heart failure,"[4]; long-term oral, incomplete opening and closing of aortic valves",can prevent the accelerated hemorrhagic heart failure
same,normal rate and final diastolic pressure of left ventricles,"[4]; rabbit, in vivo",does not affect the normal rate of rabbits and the final diastolic pressure of left ventricles
same,output and systolic pressure of the left ventricles,"[4]; rabbit, in vivo",significantly increase the output and systolic pressure of the left ventricles
same,heart-failure mortality rate,[4]; treatment group,significantly reduces with a lower heart pulse
same,treatment effect,"[6]; 6 g daily, four weeks",noticeable treatment effect
same,action and metabolism of cardiac tonic,[6]; catecholamines and digitalis,does not affect the action and metabolism of cardiac tonic
same,agglomeration of blood platelets,blood platelets,dosage-dependence relationship; also recorded: inhibitory action on the agglomeration of blood platelets
same,formation of TXA by arachidonic acids,[7],no effect on the formation of TXA by arachidonic acids
same,formation of TXA by collagen,[7],can inhibit the formation of TXA by collagen
same,formation of PGI,TXA,no noticeable effect
same,formation of thrombi,formation of thrombi,noticeable inhibition on the formation of thrombi
same,effect on cell membrane,myocardia,stabilizing effect on the cell membrane
same,formation of glutathione,myocardia,increase the formation of glutathione
same,myocardial blood deficiency and damage,myocardia,can significantly inhibit myocardial blood deficiency and damage
same,myocardial injury by hyperpolarization of calcium,myocardia,antagonize the myocardial injury
same,oxygen free radicals,myocardia,reduce the formation of oxygen free radicals; also recorded: increases the excretion of oxygen free radicals
same,effect on Ca^2+ in the myocardia,cardiac arrhythmias,biphasic moderation
same,prevention of cardiac arrhythmias,cardiac arrhythmias,can prevent cardiac arrhythmias
same,anti-arrhythmic effect,"cardiac arrhythmias; used together with quinidina, small rats",better anti-arrhythmic effect
same,effects in treating hypertension,[8],satisfactory
same,atherosclerosis,blood cholesterol,prevent atherosclerosis
same,blood cholesterol,blood cholesterol,reduce blood cholesterol
same,high-density lipoproteins,blood cholesterol,increase high-density lipoproteins
same,protection for liver injury,[9]; in vivo,protection for the liver injury
same,rise of ALT,[9]; in vivo,inhibits the rise of ALT
same,repairing of liver cells,[9]; pathological sectioning,can promote the repairing of liver cells and the prevention of lipohepatitis
same,LD50,small rats [10]; intravenous,0.33 g/kg
same,pathological changes,small rats [11],no pathological changes are found
C=C1CCC2CC1C2(C)C (stereo not drawn) [β-pipene],inflammation action,inflammation,have inflammation action
bupleurum saponin-a,anti-granulomatous action,granuloma,anti-granulomatous action
same,anti-osmosis,granuloma,anti-osmosis
same,inhibition on over-activity,"small rats [12]; mounting experiments, conditional aversion",noticeable inhibition on the over-activity
same,tranquilizing effect,"small rats [12]; rat, in vivo",significant tranquilizing effect
same,"coughing-relieving action, dose relation","coughing; intra-abdominal, 100~200 mg/kg, wister rats, 200 mg/kg",most noticeable coughing-relieving action; also recorded: related to its dosage
same,action of relieving coughing,"coughing; rat, in vivo",stronger action of relieving coughing
bupleurum saponin-d,anti-granulomatous action,granuloma,anti-granulomatous action
same,anti-osmosis,granuloma,anti-osmosis
chloretic acid,LD50,small rats [10]; [14],1.52 g/kg
deoxy-chloretic acid,effect on bile duct / excretion of bile,[13],can relax the dilators of the bile duct
same,LD50,small rats [10]; [14],1.06 g/kg
same,LD50,small rats [10]; intravenous,0.15 g/kg
